Source: US20070037841A1, “Inhibitors” (priority 2003, published 2007)

Assays:
[1] = tested on: RRE; experiment: UV absorption spectrum screening of drugs mixed with RRE; assay type: binding, HIV-1; conditions: range of 300 nm to 400 nm; absorption of free compound subtracted or compared
Description: Referring to UV absorption spectra of RRE in the presence and absence of naphthyridine dimer, screenings of the drugs was carried out. […] In FIG. 7, the solid line indicates the UV absorption spectrum of RRE alone, and the dotted line indicates a UV absorption spectrum when the absorption of naphthyridine dimer free is subtracted from the absorption of the mixture of naphthyridine dimer and RRE. […] In FIG. 8, the solid line indicates the UV absorption spectrum of RRE alone, and the dotted line indicates a UV absorption spectrum when the absorption of the naphthyridine-azaquinolone hybrid free is subtracted from the absorption of the mixture of the naphthyridine-azaquinolone hybrid and RRE. […] In FIG. 9, the solid line indicates the UV absorption spectrum of RRE alone, and the dotted line indicates a UV absorption spectrum when the absorption of the first quinoline-containing compound free is subtracted from the absorption of the mixture of the first quinoline-containing compound and RRE. […] In FIG. 10, the solid line indicates the UV absorption spectrum of RRE alone, and the dotted line indicates a UV absorption spectrum when the absorption of the second quinoline-containing compound free is subtracted from the absorption of the mixture of the second quinoline-containing compound and RRE. As represented by structural formula (8), the second quinoline-containing compound is obtained by replacing one naphthyridine of naphthyridine dimer with a quinoline incapable of hydrogen-binding to a guanine. [drawing 13] In the present example, comparison was made within a range of 300 nm to 400 nm where no absorption of RRE occurs. Naphthyridine is represented by structural formula (9). Azaquinolone is represented by structural formula (10). […] FIGS. 11-13 respectively illustrate the UV absorption spectra of naphthyridine, azaquinolone, or quinolone alone and the mixture thereof with RRE.

[2] = tested on: Rev-RRE complex; experiment: Fluorescence polarization (anisotropy) inhibition of Rev-RRE complex formation; assay type: binding, HIV-1; conditions: for IC50: Rev-Fl / RRE, read-out: IC50 value for inhibiting complex formation; for potency of inhibiting Rev-RRE complex formation compared with neomycine B: anisotropy decrease versus inhibitor concentration
Description: By using a fluorescence polarization method, it was tested whether Rev-RRE complex formation was inhibited by naphthyridine dimer and the naphthyridine-azaquinolone hybrid.
A greater molecular weight results in a greater polarization degree, i.e., a greater anisotropy.
Naphthyridine dimer, the naphthyridine-azaquinolone hybrid, and neomycine B were used as inhibitors, and anisotropies of each of the inhibitors was measured. […] The horizontal axis indicates the concentration of each of the inhibitors.
An IC50 value of the trinaphthyridine-azaquinolone hybrid used as an inhibitor was obtained by using the fluorescence polarization method. The IC50 value of the trinaphthyridine-azaquinolone hybrid was 0.2 μM. Further, in FIG. 27, the solid line indicates how a CD spectrum of RRE alone was changed, the dotted line indicates how a CD spectrum of RRE was changed when naphthyridine dimer was added to RRE, the dashed line indicates how a CD spectrum of RRE was changed when the trinaphthyridine-azaquinolone hybrid was added to RRE, and […].
Naphthyridine dimer, the naphthyridine-azaquinolone hybrid, the neomycine B, and the trinaphthyridine-azaquinolone hybrid were used as inhibitors, and anisotropies of each of the inhibitors was measured.

[3] = tested on: TAR; experiment: SPR binding of RNA to naphthyridine dimer immobilized on sensor chip; design: species or system HIV; conditions: TAR RNA over immobilized naphthyridine dimer
Description: (§1) In a manner shown in FIG. 17, a binding strength of each of RRE, RRE-neg, TAR, and single-stranded RNA (ss RNA) with respect to naphthyridine dimer immobilized on an SPR sensor chip was analyzed. Like RRE, TAR is known as an HIV-RNA target. In FIG. 18, the solid line indicates the binding strength of RRE, the dotted line the binding strength of RRE-neg, the dashed line the binding strength of TAR, and the double-dashed line the binding strength of ssRNA.

[4] = tested on: RRE; experiment: as above; design: species or system HIV-1; conditions: RRE over immobilized naphthyridine dimer
Description: as §1

[5] = tested on: RRE-neg; experiment: as above; conditions: RRE-neg over immobilized naphthyridine dimer
Description: Further, a change in CD spectrum of RRE-neg due to its binding to each of the drugs was analyzed. RRE-neg has no internal loop found in RRE, the internal loop including a GG mismatch and a GA mismatch.
as §1

[6] = tested on: RRE; experiment: CD spectrum change of RRE (and RRE-neg control) on binding of drugs; design: species or system HIV-1; conditions: for binding specificity from CD spectra of RRE versus RRE-neg: RRE-neg has no internal loop (GG and GA mismatch)
Description: A change in CD spectrum of RRE due to its binding to each of the drugs was analyzed. In FIG. 14, the solid line indicates a CD spectrum of RRE alone, the dotted line indicates a CD spectrum of a mixture of naphthyridine dimer and RRE, and the dashed line indicates a CD spectrum of a mixture of the naphthyridine-azaquinolone hybrid and RRE. Further, a change in CD spectrum of RRE-neg due to its binding to each of the drugs was analyzed. RRE-neg has no internal loop found in RRE, the internal loop including a GG mismatch and a GA mismatch.

[7] = tested on: RRE; experiment: UV titration of naphthyridine dimer with RRE; assay type: binding, HIV-1
Description: UV titration was carried out in order to study how naphthyridine dimer bound to RRE.
It was confirmed that as the concentration of RRE increased, the UV absorbance of naphthyridine dimer decreased and the UV absorbance of a complex increased above an isosbestic point.

[8] = tested on: single-stranded RNA (ss RNA); experiment: SPR binding of RNA to naphthyridine dimer immobilized on sensor chip; conditions: ssRNA over immobilized naphthyridine dimer
Description: as §1

SMILES: NCCC(=O)Nc1ccc2ccccc2n1
- change in UV absorption spectrum on mixing with RRE [1]: almost no changes

SMILES: Cc1ccc2ccc(NC(=O)CCNCCC(=O)Nc3ccc4ccccc4n3)nc2n1 [first quinoline-containing compound]
- change in UV absorption spectrum on mixing with RRE [1]: no remarkable changes

SMILES: Cc1ccc2ccc(NC(=O)CCNCCC(=O)Nc3ccc4ccc(C)nc4n3)nc2n1 [naphthyridine dimer]
- IC50 ([2]; fluorescence polarization): 1200 nM
- potency of inhibiting Rev-RRE complex formation compared with neomycine B [2]: higher potency
- binding strength (SPR signal) [3]: did not bind at all
- binding strength (SPR signal) [4]: strong signal
- change in UV absorption spectrum on mixing with RRE [1]: significant changes
- binding strength (SPR signal) [5]: almost no responses
- change in CD spectrum of RRE when compound added [6]: significant change in the whole spectrum
- binding specificity from CD spectra of RRE versus RRE-neg [6]: specifically binds to the internal loop of RRE
- binding mode to RRE from UV titration ([7]; RRE of various concentrations, absorption at 332 nm): intercalated into a duplex of RRE
- number of naphthyridine dimers forming the complex with RRE ([7]; UV titration): two
- binding strength (SPR signal) [8]: almost no responses

SMILES: Cc1ccc2ccc(NC(=O)CCNCCC(=O)NCc3ccc4ccc(=O)[nH]c4n3)nc2n1 [naphthyridine-azaquinolone hybrid]
- IC50 ([2]; fluorescence polarization): 2000 nM
- potency of inhibiting Rev-RRE complex formation compared with neomycine B [2]: higher potency
- change in UV absorption spectrum on mixing with RRE [1]: significant changes
- change in CD spectrum of RRE when compound added [6]: change at 300 nm or above
- binding specificity from CD spectra of RRE versus RRE-neg [6]: specifically binds to the internal loop of RRE

SMILES: NCC1OC(OC2C(CO)OC(OC3C(O)C(N)CC(N)C3OC3OC(CN)C(O)C(O)C3N)C2O)C(N)C(O)C1O (stereo not shown) [neomycine B, reference compound]
- IC50 ([2]; fluorescence polarization): 4000 nM

SMILES: O=C(CCNCCC(=O)Nc1ccc2ccccc2n1)NCc1ccc2ccc(=O)[nH]c2n1 [second quinoline-containing compound]
- change in UV absorption spectrum on mixing with RRE [1]: no remarkable changes

SMILES: Cc1ccc2ccc(NC(=O)CCN(CCCCCN(CCC(=O)Nc3ccc4ccc(C)nc4n3)CCC(=O)Nc3ccc4ccc(C)nc4n3)CCC(=O)NCc3ccc4ccc(=O)[nH]c4n3)nc2n1 [trinaphthyridine-azaquinolone hybrid]
- IC50 ([2]; fluorescence polarization): 200 nM
- activity relative to neomycine B ([2]; fluorescence polarization): approximately twenty
